Reference: patent US7470715B2, “Estrogen modulators” (Pfizer Inc., priority 2005, dated 2008)

How the values were obtained:
[1] = molecular target: T1, ligand binding domain of the estrogen receptor alpha chain (ERαLBD) (Homo sapiens, UniProt P03372); test: ER agonist cell assay (ERα), Huh-7 co-transfection, luciferase; type: cell-based; details: for EC50: Huh-7 cells co-transfected with pG5luc and ERαLBD, overnight incubation, luciferase; for ERα % of Max E2 Response: percent of the maximum estradiol fold change, Huh-7, pG5luc and ERαLBD
T1 construct: expressed in transfected cells; host or cells: Huh-7 human hepatoma cells, transient transfection with FuGENE 6
T1 sequence (P03372 311-547 limits assumed): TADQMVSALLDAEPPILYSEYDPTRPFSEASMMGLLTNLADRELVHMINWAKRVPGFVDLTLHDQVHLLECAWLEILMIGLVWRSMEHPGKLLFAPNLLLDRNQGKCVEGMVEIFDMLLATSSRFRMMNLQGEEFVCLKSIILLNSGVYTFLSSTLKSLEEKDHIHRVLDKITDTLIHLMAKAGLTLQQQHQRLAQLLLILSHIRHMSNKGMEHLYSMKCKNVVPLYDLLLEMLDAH
Experimental: (§1) The compounds ability to mimic the effects of estrogen on the estrogen receptor were determined in a whole cell assay as described immediately below.
(§2) Experimental Procedure for ER Agonist Cell Assay
(§3) • Cell line and plasmids: The human hepatoma cell line Huh-7 was used for co-transfections. Cells were maintained in culture medium and split when they reached 80-90% confluency. Three plasmids were routinely used in the assay. pG5luc contained the firefly luciferase gene and was obtained from Promega. […] Cell Culture Media and Reagents:
(§4) Culture medium: DMEM (phenol red free), 10% charcoal treated HyClone serum, 1% L-glutamine, and 1% penicillin/streptomycin
(§5) Transfection medium: DMEM (phenol red free) and 10% charcoal treated HyClone serum
(§6) Luciferase reagents: Dual-Glo Luciferase Kit (Promega cat #E2980) was used for determination of luciferase activity.
(§7) Transient transfections were preformed using the lipophilic reagent FuGENE 6 (Roche). Cells were split and seeded at 7.2×10^6/150 cm^2 flask in 20 mL of transfection medium. 5-6 hrs later cells were co-transfected with either pG5luc and ERαLBD or pG5luc and ERβLBD(pm418). Transfected cells grew overnight and were then used the next day.
(§8) Cells transfected 24 hrs earlier were harvested, counted, and seeded in wells containing compound at a density of 1×10^4 cells/well. […] Cells were incubated overnight at 37° C. and 5% CO2 in the presence of compound. The following day medium was aspirated from the wells and 100 ul of Dual-Glo™ Luciferase Reagent were added to each well. Plates were incubated at room temperature for 20 minutes and firefly luminescence was measured on a luminometer. Next, 50 ul of Dual-Gbo™ Stop & Glo® Reagent were added to each well and after 20 minutes at room temperature the Renilla luminescence was measured on a luminometer. Values from each well were normalized by dividing the firefly luminescence by the Renilla luminescence. Estradiol was used as the standard and run in each assay. The fold induction over background for each compound was compared to the maximum fold induction for estradiol in each assay. […] Those compounds that were not tested, or the data was unavailable are marked as NT.

[2] = molecular target: ligand binding domain of the estrogen receptor beta chain (ERβLBD) that contained a point mutation at amino acid residue 418 (pm418) (Homo sapiens, UniProt Q92731); test: ER agonist cell assay (ERβ), Huh-7 co-transfection, luciferase; type: cell-based; details: for EC50: Huh-7 cells co-transfected with pG5luc and ERβLBD(pm418), overnight incubation, luciferase; for ERβ % of Max E2 Response: percent of the maximum estradiol fold change, Huh-7, pG5luc and ERβLBD(pm418)
Experimental: as §1, §2, §3, §4, §5, §6, §7, §8

[3] = test system: hairless female SKH, 1-hr mice; test: Animal model for reversal of wrinkles: skin thickness model, topical dosing, skin thickness and hyaluronic acid; type: in vivo, mouse; details: 3% topical, QD, three days
Description: Animal Model for Reversal of Wrinkles
Uzuka et al. describes an increase in mouse back skin water content, hyaluronic acid (HA) content, and hyaluronic acid synthetase activity following topical application or subcutaneous injection of estradiol (Biochimica et Biophysica Acta, 627, 199-206, 1980; Biochimica et Biophysica Acta 673, 387-393, 1981). […] Thus, this model may be used to as a preliminary screen to assess the potential for estrogen modulators to alleviate wrinkles in human skin.
The skin thickness model uses hairless female SKH, 1-hr mice. Mice aged to approximately 11 weeks are introduced into the laboratory environment and acclimated for at least 1 week prior to use in the study may be used. Each group typically consisted of 7 animals that may be run in parallel with vehicle and the positive control estradiol. Based on binding and/or cellular assay data, compounds are chosen for screening in this model. Those compounds include the products of Examples, 2, 9, 15, 46, 47, 48, 51, 52, 61, 135, and 137. Prior to topical application to mouse dorsal skin, a sufficient quantity of each compound is dissolved in a solvent generally consisting of ethanol and propylene glycol (70/30% v/v) (vehicle) to achieve the final concentration specified in Table C below. Animals are dosed topically QD or BID, for three days. Each dose consisted of 100 microliters of vehicle or drug applied uniformly to the entire dorsal surface (˜18 cm^2). All animals are sacrificed approximately 18-24 hours after the final dose. Skin thickness (ST) is measured using a caliper. HA is extracted from the skin and quantitated using commercially-available enzyme-linked immunosorbent assays (ELISAs)(HA).
Data are presented as percent of the estradiol response after subtracting out the ST for vehicle-treated mouse skin. The estradiol response is set to 100% and the vehicle resoibse becines 0%.

SMILES	melting point [°C]	EC50 [1] [nM]	ERα % of Max E2 Response [1] [%]	EC50 [2] [nM]	ERβ % of Max E2 Response [2] [%]	HA (hyaluronic acid), percent of the estradiol response [3] [%]	ST (skin thickness), percent of the estradiol response [3] [%]
CN(C)CC1(c2onc(-c3ccc(O)cc3)c2-c2ccccc2)CC1.Cl	234						
Cl.Oc1ccc(-c2noc(C3(CN4CCCNCC4)CC3)c2-c2ccccc2)cc1	193 to 194						
Cl.Oc1ccc(-c2noc(C3(CNc4ccncc4)CC3)c2-c2ccccc2)cc1	316 to 317						
Oc1ccc(-c2noc(C3(C[n+]4ccccc4)CC3)c2-c2ccccc2)cc1.[Cl-]	244 to 245						
CCC(NCC1(c2onc(-c3ccc(O)cc3)c2-c2ccccc2)CC1)c1ccccc1 (racemic) [Example 25, (±)-4-(4-Phenyl-5-{1-[(1-phenyl-propylamino)-methyl]-cyclopropyl}-isoxazol-3-yl)-phenol]	126 to 127	26.5	18.2	> 10000	>0.571		
Oc1ccc(-c2noc(C3(CNCC4CCCO4)CC3)c2-c2ccccc2)cc1 (racemic) [Example 30, (±)-4-[4-Phenyl-5-(1-{[(tetrahydro-furan-2-ylmethyl)-amino]-methyl}-cyclopropyl)-isoxazol-3-yl]-phenol]	276 to 277						
CC(O)C1(c2onc(-c3ccc(O)cc3)c2-c2ccccc2)CC1 (racemic) [Example 45, (±)-4-{5-[1-(1-Hydroxy-ethyl)-cyclopropyl]-4-phenyl-isoxazol-3-yl}-phenol]	196 to 197	47.5	79.3	46.7	81.2		
CCOc1ccccc1OCC1(c2onc(-c3ccc(O)cc3)c2-c2ccccc2)CC1 [Example 4, 4-{5-[1-(2-Ethoxy-phenoxymethyl)-cyclopropyl]-4-phenyl-isoxazol-3-yl}-phenol]	148 to 149	141	14.7	> 10000	>0.727		
Oc1ccc(-c2noc(C3(COc4c(F)cccc4OC(F)(F)F)CC3)c2-c2ccccc2)cc1 [Example 5, 4-{5-[1-(2-Fluoro-6-trifluoromethoxy-phenoxymethyl)-cyclopropyl]-4-phenyl-isoxazol-3-yl}-phenol]	132 to 133	45.9	19.3	> 10000	>4.51		
CCOc1ncccc1OCC1(c2onc(-c3ccc(O)cc3)c2-c2ccccc2)CC1 [Example 6, 4-{5-[1-(2-Ethoxy-pyridin-3-yloxymethyl)-cyclopropyl]-4-phenyl-isoxazol-3-yl}-phenol]	190 to 192	237	9.48	> 10000	>3.19		
Cl.Oc1ccc(-c2noc(C3(CNc4ccc5c(c4)CCC5)CC3)c2-c2ccccc2)cc1 [Example 23, 4-{5-[1-(Indan-5-ylaminomethyl)-cyclopropyl]-4-phenyl-isoxazol-3-yl}-phenol hydrochloride salt]	204 to 205	559	21	3860	5.5		
Cl.Oc1ccc(-c2noc(C3(CN4CCSCC4)CC3)c2-c2ccccc2)cc1 [Example 32, 4-[4-Phenyl-5-(1-thiomorpholin-4-ylmethyl-cyclopropyl)-isoxazol-3-yl]-phenol hydrochloride salt]	249 to 250	22.9	38.5	19.5	0.999		
Oc1ccc(-c2noc(C3CC3)c2-c2ccccc2)cc1 [Example 35, 4-(5-Cyclopropyl-4-phenyl-isoxazol-3-yl)-phenol]	197 to 200	171	25	130	5.78		
CC1(c2onc(-c3ccc(O)cc3)c2-c2ccccc2)CC1 [Example 36, 4-[5-(1-methyl-cyclopropyl)-4-phenyl-isoxazol-3-yl]phenol]	212 to 214						
CC(C)(O)C1(c2onc(-c3ccc(O)cc3)c2-c2ccccc2)CC1 [Example 49, 4-{5-[1-(1-Hydroxy-1-methyl-ethyl)-cyclopropyl]-4-phenyl-isoxazol-3-yl}-phenol]	212 to 213	159	94.6	23.6	36.7		
CCC(O)(CC)C1(c2onc(-c3ccc(O)cc3)c2-c2ccccc2)CC1 [Example 50, 4-{5-[1-(1-Ethyl-1-hydroxy-propyl)-cyclopropyl]-4-phenyl-isoxazol-3-yl}-phenol]	118 to 119	124	80.2		1		
CC(C)C(=O)OCC1(c2onc(-c3ccc(O)cc3)c2-c2ccccc2)CC1 [Example 52]		138	66	117	121	34	21
CC(C)COC(=O)C1(c2onc(-c3ccc(O)cc3)c2-c2ccccc2)CC1 [Example 60, 1-[3-(4-Hydroxy-phenyl)-4-phenyl-isoxazol-5-yl]-cyclopropanecarboxylic acid isobutyl ester]	109 to 110	12.9	23.3	> 10000	>3.71		
Oc1ccc(-c2noc(C3(C(O)(C4CC4)C4CC4)CC3)c2-c2ccccc2)cc1 [Example 99, 4-{5-(1-(Dicyclopropyl-hydroxy-methyl)-cyclopropyl]-4-phenyl-isoxazol-3-yl}-phenol]	169 to 170	38.4	45.3		0.679		
C[C@H](O)C1(c2onc(-c3ccc(O)cc3)c2-c2ccccc2)CC1 [Example 100, Alt. D, (S)-(+)-4-{5-[1-(1-Hydroxy-ethyl)-cyclopropyl]-4-phenyl-isoxazol-3-yl}-phenol]	220 to 221						
CC[C@H](O)C1(c2onc(-c3ccc(O)cc3)c2-c2ccccc2)CC1 [Example 100, Alt. F, (S)-(+)-4-{5-[1-(1-hydroxy-propyl)-cyclopropyl]-4-phenyl-isoxazol-3-yl}-phenol]	165 to 166						
NCC1(c2onc(-c3ccc(O)cc3)c2-c2ccccc2)CC1 [Example 105, 4-{5-[1-(Aminomethyl)cyclopropyl]-4-phenylisoxazol-3-yl}phenol]	220 to 225						
